Patent US9120795B2, “Crystalline form of a β-lactamase inhibitor” (Cubist Pharmaceuticals, Inc., priority 2013, dated 2015)

What was measured:
[1] = tested on: Eco isogenic, β-Lactamase none; assay: Synergy MIC (sMIC) assay; type: cell-based, E. coli; settings: β-Lactam none
Procedure: (§1) The synergy MIC (sMIC) assay determines the concentration of the BLI required to potentiate the activity of a fixed concentration of a β-lactam antibiotic against β-lactamase producing bacterial strains. The experimental protocol was performed according to Clinical and Laboratory Standards Institute (CLSI) guidelines with modifications as described below (CLSI guidelines can be derived from the CLSI document M07-A9 published in January 2012: “Methods for Dilution Antimicrobial Susceptibility Tests for Bacteria That Grow Aerobically; Approved Standard-Ninth Edition”). […]
(§2) Plates were incubated for 18-20 hours at 37° C. with aeration (200 rpm). Following incubation, growth was confirmed visually placing plates over a viewing apparatus (stand with a mirror underneath) and then OD600 was measured using a SpectraMax 340PC384 plate reader (Molecular Devices, Sunnyvale, Calif.). Growth was defined as turbidity that could be detected with the naked eye or achieving minimum OD600 of 0.1. sMIC values were defined as the lowest concentration producing no visible turbidity. […]

KPC-2 β-lactamase = KPC-2 β-lactamase (Klebsiella pneumoniae, UniProt Q9F663); assay: Inhibition kinetics with nitrocefin as reporter substrate; type: biochemical; settings: 100 μM nitrocefin, 1×PBS pH 7.4, 25° C.
Sequence of KPC-2 β-lactamase (Q9F663 25-293 limits assumed): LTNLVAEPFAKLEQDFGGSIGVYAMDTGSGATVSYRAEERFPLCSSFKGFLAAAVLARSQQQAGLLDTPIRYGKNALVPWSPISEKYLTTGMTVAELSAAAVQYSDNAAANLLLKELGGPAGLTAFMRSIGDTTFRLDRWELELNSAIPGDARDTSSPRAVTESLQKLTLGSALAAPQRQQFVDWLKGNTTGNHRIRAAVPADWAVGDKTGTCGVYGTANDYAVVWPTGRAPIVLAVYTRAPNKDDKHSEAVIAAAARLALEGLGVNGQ
Procedure: Inhibition or inactivation of KPC-2 by test inhibitors was assessed using 100 μM nitrocefin (NCF) as a reporter substrate. Assays were performed in 1×PBS pH 7.4, 0.1 mg/ml BSA, in 96-well half area plates, 50 μl reaction volume. NCF was dissolved in DMSO and diluted in assay buffer. Test inhibitors were dissolved in water or DMSO and serially diluted in the assay with final concentrations between 2000-0.195 μM.
The enzyme activity in the presence of varying concentrations of test inhibitor was determined by monitoring the hydrolysis of NCF spectrophotometrically at 486 nm, for 5 minutes, 25° C., using a SpectraMax Plus384 microplate reader with SoftMax Pro software (Molecular Devices). Data analysis was performed using GraphPad Prism (GraphPad Software, Inc.).
Progress curves were fit to a first-order rate decay equation (Eq. 1) to determine kobserved (kobs).
kobs vs. inhibitor concentration [I] curves were then fit to Eq.2 to determine the inhibitor dissociation constant (K) and the first order rate constant of enzyme inactivation at infinite inhibitor concentration (kinact). […] Yt=V0*(1−e^(−kobs*t))/kobs Eq. 1 Where Y is the absorbance at time t, V0 is the uninhibited enzyme velocity, kobs is the observed rate constant of the enzyme inactivation. kobs=kinact*[I]/([I]+K(1+S/Km)) Eq. 2 Where S is the NCF concentration, Km is the KPC-2 Km for NCF.

Kpn clinical, KPC-2 = assay: Synergy MIC (sMIC) assay; type: cell-based, Klebsiella pneumoniae; settings: KPC-2, clinical Kpn; CXA-101 at 4 μg/mL
Procedure: as §1, §2

## O=C1N2C[C@@H](CC[C@H]2c2nnco2)N1OS(=O)(=O)[O-].[Na+] [Hydrate 1, sodium (2S,5R)-2-(1,3,4-oxadiazol-2-yl)-7-oxo-1,6-diazabicyclo[3.2.1]octan-6-yl sulfate]
[1]
  sMIC: F (F = ≧128 μg/mL)
KPC-2 β-lactamase
  Kinact/K: 134000 to 163000 M⁻¹ s⁻¹
Kpn clinical, KPC-2
  sMIC: C (C = 4-8 μg/mL)
